Patent US7601716B2, “Pyridopyrazines and derivatives thereof as ALK and c-Met inhibitors” (Cephalon, Inc., priority 2006, dated 2009)

Each compound was assayed against baculovirus-expressed ALK (Homo sapiens, UniProt Q9UM73) (assay: ALK Kinase Assay (ELISA/TRF, PLC-γ substrate)). Details: read-out: ALK Kinase Inhibition (IC50).
Format: biochemical
Method: Example compounds were tested for their ability to inhibit the kinase activity of baculovirus-expressed ALK using a modification of the ELISA protocol reported for trkA in Angeles, T. S. et al., Anal. Biochem. 1996, 236, 49-55, which is incorporated herein by reference in its entirety. Phosphorylation of the substrate, phospholipase C-gamma (PLC-γ) generated as a fusion protein with glutathione S-transferase (GST) as reported in Rotin, D. et al., EMBO J. 1992, 11, 559-567, which is incorporated herein by reference in its entirety, was detected with a europium-labeled anti-phosphotyrosine antibody and measured by time-resolved fluorescence (TRF). Briefly, each 96-well plate was coated with 100 μL/well of 10 μg/mL substrate (phospholipase C-γ) in Tris-buffered saline (TBS). […] The reaction was initiated by adding enzyme (30 ng/ml ALK) and was allowed to proceed at 37° C. for 15 minutes. Detection of the phosphorylated product was performed by adding 100 μl/well of Eu-N1 labeled PT66 antibody (Perkin Elmer # AD0041). Incubation at 37° C. then proceeded for one (1) hour, followed by addition of 100 μL enhancement solution (Wallac #1244-105). The plate was gently agitated and after thirty minutes, the fluorescence of the resulting solution was measured using the EnVision 2100 (or 2102) multilabel plate reader (Perkin Elmer).
Data analysis was performed using ActivityBase (IDBS, Guilford, UK). IC50 values were calculated by plotting percent inhibition versus log10 of the concentration of compound and fitting to the nonlinear regression sigmoidal dose-response (variable slope) equation in XLFit (IDBS, Guilford, UK).
Further: 1 µM ATP (Km level).

Sequence of baculovirus-expressed ALK (Q9UM73 19-1620): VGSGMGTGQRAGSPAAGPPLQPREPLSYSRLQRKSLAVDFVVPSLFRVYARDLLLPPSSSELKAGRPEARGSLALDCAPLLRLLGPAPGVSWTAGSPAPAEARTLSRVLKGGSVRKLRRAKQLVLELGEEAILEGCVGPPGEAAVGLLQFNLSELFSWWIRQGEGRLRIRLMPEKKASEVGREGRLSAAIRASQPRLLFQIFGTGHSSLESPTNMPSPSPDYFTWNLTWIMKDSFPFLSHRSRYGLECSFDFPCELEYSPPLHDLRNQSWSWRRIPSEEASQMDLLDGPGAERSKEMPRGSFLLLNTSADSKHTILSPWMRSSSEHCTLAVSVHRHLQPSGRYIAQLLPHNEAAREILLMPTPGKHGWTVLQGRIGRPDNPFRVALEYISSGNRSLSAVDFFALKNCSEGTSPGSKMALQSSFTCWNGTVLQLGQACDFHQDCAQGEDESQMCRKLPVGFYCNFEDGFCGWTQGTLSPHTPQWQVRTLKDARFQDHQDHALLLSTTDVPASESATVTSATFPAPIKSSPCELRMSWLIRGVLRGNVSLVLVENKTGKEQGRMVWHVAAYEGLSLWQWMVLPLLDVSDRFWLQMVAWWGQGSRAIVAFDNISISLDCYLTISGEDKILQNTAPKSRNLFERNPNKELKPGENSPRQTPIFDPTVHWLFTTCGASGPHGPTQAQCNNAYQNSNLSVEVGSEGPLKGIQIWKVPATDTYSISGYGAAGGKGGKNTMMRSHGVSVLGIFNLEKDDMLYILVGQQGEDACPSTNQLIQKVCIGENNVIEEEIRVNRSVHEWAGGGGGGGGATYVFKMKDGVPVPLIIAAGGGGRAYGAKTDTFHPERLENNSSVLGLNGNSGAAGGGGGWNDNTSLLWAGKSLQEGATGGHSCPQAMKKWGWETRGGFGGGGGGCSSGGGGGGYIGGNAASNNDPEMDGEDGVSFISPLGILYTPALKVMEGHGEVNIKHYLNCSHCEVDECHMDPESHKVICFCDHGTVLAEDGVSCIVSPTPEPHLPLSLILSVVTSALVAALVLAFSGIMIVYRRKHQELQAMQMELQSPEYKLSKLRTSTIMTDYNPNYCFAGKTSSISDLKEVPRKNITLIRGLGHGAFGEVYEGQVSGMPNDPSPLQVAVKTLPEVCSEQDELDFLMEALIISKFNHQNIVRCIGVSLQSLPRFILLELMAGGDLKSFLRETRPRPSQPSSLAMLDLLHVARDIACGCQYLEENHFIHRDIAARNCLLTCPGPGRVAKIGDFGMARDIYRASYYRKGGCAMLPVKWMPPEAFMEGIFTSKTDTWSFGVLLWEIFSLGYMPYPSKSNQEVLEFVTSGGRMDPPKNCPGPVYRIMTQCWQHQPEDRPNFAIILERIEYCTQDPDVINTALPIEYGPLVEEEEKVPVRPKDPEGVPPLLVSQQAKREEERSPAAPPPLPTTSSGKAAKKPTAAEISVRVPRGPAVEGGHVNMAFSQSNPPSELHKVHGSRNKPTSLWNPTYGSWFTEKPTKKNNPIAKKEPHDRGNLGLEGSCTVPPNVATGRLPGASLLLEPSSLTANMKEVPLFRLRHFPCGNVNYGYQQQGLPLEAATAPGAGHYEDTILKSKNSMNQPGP

IC50 | SMILES
100 to 1000 nM | O=C(c1cccc(-c2cnc3c(c2)N(Cc2cc(Cl)ccc2C(F)(F)F)CCN3)c1)N1CCN(c2ccc(Cl)c(Cl)c2)CC1 [Example 317, (3-{1-[5-Chloro-2-(trifluoromethyl)benzyl]-1,2,3,4-tetrahydropyrido[2,3-b]pyrazin-7-yl}phenyl)-[4-(3,4-dichlorophenyl)piperazin-1-yl]methanone]
100 to 1000 nM | O=C(c1cccc(-c2cnc3c(c2)N(Cc2cc(Cl)ccc2C(F)(F)F)CCN3)c1)N1CCC2(CC1)C(=O)NCN2c1ccccc1 [Example 318, 8-(3-{1-[5-Chloro-2-(trifluoromethyl)benzyl]-1,2,3,4-tetrahydropyrido[2,3-b]pyrazin-7-yl}benzoyl)-1-phenyl-1,3,8-triaza-spiro[4.5]decan-4-one]
100 to 1000 nM | O=C(c1cccc(-c2cnc3c(c2)N(Cc2cc(Cl)ccc2C(F)(F)F)CCN3)c1)N1CCN(c2ccccc2C(F)(F)F)CC1 [Example 319, (3-{1-[5-Chloro-2-(trifluoromethyl)benzyl]-1,2,3,4-tetrahydropyrido[2,3-b]pyrazin-7-yl}phenyl)-{4-[2-(trifluoromethyl)phenyl]piperazin-1-yl}methanone]
100 to 1000 nM | O=C(c1cccc(-c2cnc3c(c2)N(Cc2cc(Cl)ccc2C(F)(F)F)CCN3)c1)N1CCN(c2ncnc3ccsc23)CC1 [Example 320, (3-{1-[5-Chloro-2-(trifluoromethyl)benzyl]-1,2,3,4-tetrahydropyrido[2,3-b]pyrazin-7-yl}phenyl)-(4-thieno[3,2-d]pyrimidin-4-ylpiperazin-1-yl)methanone]
100 to 1000 nM | O=C(c1cccc(-c2cnc3c(c2)N(Cc2cc(Cl)ccc2C(F)(F)F)CCN3)c1)N1CCN(Cc2ccc(Cl)cc2)CC1 [Example 321, [4-(4-Chlorobenzyl)piperazin-1-yl]-(3-{1-[5-Chloro-2-(trifluoromethyl)benzyl]-1,2,3,4-tetrahydropyrido[2,3-b]pyrazin-7-yl}phenyl)methanone]
100 to 1000 nM | COc1ccc(CN2CCN(C(=O)c3cccc(-c4cnc5c(c4)N(Cc4cc(Cl)ccc4C(F)(F)F)CCN5)c3)CC2)cc1 [Example 322, (3-{1-[5-Chloro-2-(trifluoromethyl)benzyl]-1,2,3,4-tetrahydropyrido[2,3-b]pyrazin-7-yl}phenyl)-[4-(4-methoxybenzyl)piperazin-1-yl]methanone]
100 to 1000 nM | O=C(c1ccccc1)N1CCN(C(=O)c2cccc(-c3cnc4c(c3)N(Cc3cc(Cl)ccc3C(F)(F)F)CCN4)c2)CC1 [Example 323, (4-Benzoylpiperazin-1-yl)-(3-{1-[5-Chloro-2-(trifluoromethyl)benzyl]-1,2,3,4-tetrahydropyrido[2,3-b]pyrazin-7-yl}phenyl)methanone]
100 to 1000 nM | O=C(c1cccc(-c2cnc3c(c2)N(Cc2cc(Cl)ccc2C(F)(F)F)CCN3)c1)N1CCN(c2nccc3occc23)CC1 [Example 324, (3-{1-[5-Chloro-2-(trifluoromethyl)benzyl]-1,2,3,4-tetrahydropyrido[2,3-b]pyrazin-7-yl}phenyl)-(4-furo[3,2-c]pyridin-4-ylpiperazin-1-yl)methanone]
100 to 1000 nM | O=C(c1cccc(-c2cnc3c(c2)N(Cc2cc(Cl)ccc2C(F)(F)F)CCN3)c1)N1CCC(c2noc3cc(F)ccc23)CC1 [Example 325, (3-{1-[5-Chloro-2-(trifluoromethyl)benzyl]-1,2,3,4-tetrahydropyrido[2,3-b]pyrazin-7-yl}phenyl)-[4-(6-fluorobenzo[d]isoxazol-3-yl)piperidin-1-yl]methanone]
100 to 1000 nM | CCOC(=O)N1CCC(NC(=O)c2cccc(-c3cnc4c(c3)N(Cc3cc(Cl)ccc3C(F)(F)F)CCN4)c2)CC1 [Example 326, 4-(3-{1-[5-Chloro-2-(trifluoromethyl)benzyl]-1,2,3,4-tetrahydropyrido[2,3-b]pyrazin-7-yl}benzoylamino)piperidine-1-carboxylic acid ethyl ester]
< 100 nM | O=C(NC1CCN(Cc2ccccc2)CC1)c1cccc(-c2cnc3c(c2)N(Cc2cc(Cl)ccc2C(F)(F)F)CCN3)c1 [Example 327, N-(1-Benzylpiperidin-4-yl)-3-{1-[5-chloro-2-(trifluoromethyl)benzyl]-1,2,3,4-tetrahydropyrido[2,3-b]pyrazin-7-yl}benzamide]
100 to 1000 nM | O=C(NCC(c1ccccc1)c1ccccc1)c1cccc(-c2cnc3c(c2)N(Cc2cc(Cl)ccc2C(F)(F)F)CCN3)c1 [Example 328, 3-{1-[5-Chloro-2-(trifluoromethyl)benzyl]-1,2,3,4-tetrahydropyrido[2,3-b]pyrazin-7-yl}-N-(2,2-diphenylethyl)benzamide]
< 100 nM | CN1CCC(NC(=O)c2cccc(-c3cnc4c(c3)N(Cc3cc(Cl)ccc3C(F)(F)F)CCN4)c2)CC1 [Example 329, 3-{1-[5-Chloro-2-(trifluoromethyl)benzyl]-1,2,3,4-tetrahydropyrido[2,3-b]pyrazin-7-yl}-N-(1-methylpiperidin-4-yl)benzamide]

Continued, compound first:

SMILES | IC50
O=C(c1cccc(-c2cnc3c(c2)N(Cc2cc(Cl)ccc2C(F)(F)F)CCN3)c1)N1CCN(c2ccccc2)CC1 [Example 306, (3-{1-[5-Chloro-2-(trifluoromethyl)benzyl]-1,2,3,4-tetrahydropyrido[2,3-b]pyrazin-7-yl}phenyl)-(4-phenylpiperazin-1-yl)methanone] | 100 to 1000 nM
O=C(c1cccc(-c2cnc3c(c2)N(Cc2cc(Cl)ccc2C(F)(F)F)CCN3)c1)N1CCN(c2ncccn2)CC1 [Example 307, (3-{1-[5-Chloro-2-(trifluoromethyl)benzyl]-1,2,3,4-tetrahydropyrido[2,3-b]pyrazin-7-yl}phenyl)-(4-pyrimidin-2-ylpiperazin-1-yl)methanone] | 100 to 1000 nM
O=C(c1cccc(-c2cnc3c(c2)N(Cc2cc(Cl)ccc2C(F)(F)F)CCN3)c1)N1CCN(c2ccc(Cl)cc2)CC1 [Example 308, [4-(4-Chlorophenyl)-piperazin-1-yl]-(3-{1-[5-Chloro-2-(trifluoromethyl)benzyl]-1,2,3,4-tetrahydropyrido[2,3-b]pyrazin-7-yl}phenyl)methanone] | 100 to 1000 nM
O=C(c1cccc(-c2cnc3c(c2)N(Cc2cc(Cl)ccc2C(F)(F)F)CCN3)c1)N1CCC(O)(c2ccc(Cl)cc2)CC1 [Example 309, [4-(4-Chlorophenyl)-4-hydroxypiperidin-1-yl]-(3-{1-[5-Chloro-2-(trifluoromethyl)benzyl]-1,2,3,4-tetrahydropyrido[2,3-b]pyrazin-7-yl}phenyl)methanone] | 100 to 1000 nM
O=C(c1cccc(-c2cnc3c(c2)N(Cc2cc(Cl)ccc2C(F)(F)F)CCN3)c1)N1CCC(n2c(=O)[nH]c3ccccc32)CC1 [Example 310, 1-[1-(3-{1-[5-Chloro-2-(trifluoromethyl)benzyl]-1,2,3,4-tetrahydropyrido[2,3-b]pyrazin-7-yl}benzoyl)piperidin-4-yl]-1,3-dihydrobenzoimidazol-2-one] | 100 to 1000 nM
COc1ccccc1N1CCN(C(=O)c2cccc(-c3cnc4c(c3)N(Cc3cc(Cl)ccc3C(F)(F)F)CCN4)c2)CC1 [Example 311, (3-{1-[5-Chloro-2-(trifluoromethyl)benzyl]-1,2,3,4-tetrahydropyrido[2,3-b]pyrazin-7-yl}phenyl)-[4-(2-methoxyphenyl)piperazin-1-yl]methanone] | 100 to 1000 nM
O=C(c1cccc(-c2cnc3c(c2)N(Cc2cc(Cl)ccc2C(F)(F)F)CCN3)c1)N1CCN(c2cccc(C(F)(F)F)c2)CC1 [Example 312, (3-{1-[5-Chloro-2-(trifluoromethyl)benzyl]-1,2,3,4-tetrahydropyrido[2,3-b]pyrazin-7-yl}phenyl)-{4-[3-(trifluoromethyl)phenyl]piperazin-1-yl}methanone] | 100 to 1000 nM
O=C(c1cccc(-c2cnc3c(c2)N(Cc2cc(Cl)ccc2C(F)(F)F)CCN3)c1)N1CCC(c2ccccc2)CC1 [Example 313, (3-{1-[5-Chloro-2-(trifluoromethyl)benzyl]-1,2,3,4-tetrahydropyrido[2,3-b]pyrazin-7-yl}phenyl)-(4-phenylpiperidin-1-yl)methanone] | 100 to 1000 nM
O=C(c1cccc(-c2cnc3c(c2)N(Cc2cc(Cl)ccc2C(F)(F)F)CCN3)c1)N1CCC(c2c[nH]c3ccccc23)CC1 [Example 314, (3-{1-[5-Chloro-2-(trifluoromethyl)benzyl]-1,2,3,4-tetrahydropyrido[2,3-b]pyrazin-7-yl}phenyl)-[4-(1H-indol-3-yl)piperidin-1-yl]methanone] | 100 to 1000 nM
O=C(c1cccc(-c2cnc3c(c2)N(Cc2cc(Cl)ccc2C(F)(F)F)CCN3)c1)N1CCN(C(c2ccccc2)c2ccccc2)CC1 [Example 315, (4-Benzhydrylpiperazin-1-yl)-(3-{1-[5-Chloro-2-(trifluoromethyl)benzyl]-1,2,3,4-tetrahydropyrido[2,3-b]pyrazin-7-yl}phenyl)methanone] | 1000 to 10000 nM
O=C(c1cccc(-c2cnc3c(c2)N(Cc2cc(Cl)ccc2C(F)(F)F)CCN3)c1)N1CCC(Cc2ccccc2)CC1 [Example 316, (4-Benzylpiperidin-1-yl)-(3-{1-[5-Chloro-2-(trifluoromethyl)benzyl]-1,2,3,4-tetrahydropyrido[2,3-b]pyrazin-7-yl}phenyl)methanone] | 100 to 1000 nM
